Measured values from US12234257B2, “Triterpene saponin derivative and use thereof” (KOREA INSTITUTE OF SCIENCE AND TECHNOLOGY, priority 2020, dated 2025).
“Also recorded” adds a separate entry of the source.

Experiments:
Assay type in all cases: cell-based, human
[1] = system: GFP-RFP-LC3-II puncta in SH-SY5Y cells; assay: Tandem fluorescent protein quenching assay (RFP-GFP-LC3); conditions: transfected SH-SY5Y cells, AKNS-2 10 μM + Baf 100 nM
Procedure: SH-SY5Y cells were cultured in a 24-well plate at a density of 8×10^4 cells/well on a glass cover slip. Transfection was performed in accordance with guidelines of the autophagy tandem RFP-GFP-LC3B kit. After culturing the cells for 24 hours, the cells were treated with an LC3B reagent. After the transfected cells were incubated for 24 hours, 50 nM Wart or 100 nM Baf was administered thereto, and then AKNS-2 (10 μM) was added thereto. The cells were immobilized with 4% paraformaldehyde and permeabilized with 0.1% Triton X100. Nuclei thereof were stained with 4,6-diamidino-2-phenylindole (DAPI, 25 μg/mL). Fluorescent signals were detected using a confocal microscope (Leica, Solms, Germany).

[2] = system: autophagy-related protein markers (LC3-II, p62, p-AMPK, p-Erk, p-ULK, p-mTOR) in SH-SY5Y cells; assay: Western blot of autophagy-related protein markers in SH-SY5Y cells
Procedure: (§1) Human neuroblastoma (SH-SY5Y) cells were purchased from the American Type Culture Collection (Manassas, Va., USA) and cultured in DMEM supplemented with 10% heat-inactivated FBS and 1% penicillin/streptomycin. The SH-SY5Y cells were cultured at 37° C. in a humid atmosphere containing 5% CO2. […] The SH-SY5Y cells were transfected with AMPK siRNA and then administered with AKNS-2 at 36 hours after siRNA transfection. […] After 24 hours from treatment with the samples, the SH-SY5Y cells were recovered and used for subsequent analysis. At 24 hours after drug treatment, the culture medium was removed from the 6-well plate, and the cells were gently washed once with cold saline. Subsequently, 1 mL of cold saline was added to each well, and cells attached to the bottom were floated by rubbing the bottom with a 1 mL pipette. The suspension was collected in a 1.5 mL tube and centrifuged at 4° C. at 13000×g for 5 minutes. After removing a supernatant, 50 μL of a RIPA lysis buffer including a protease inhibitor cocktail (Roche, Mannheim, Germany) and purchased from Cell Signaling Technology (Danvers, Mass., USA) was added to the cell pellet. After shaking the mixture at 4° C. for 30 minutes, the obtained cells were centrifuged at 4° C. at 13000×g for 20 minutes. A supernatant was collected therefrom, and a concentration of proteins was measured using a standard curve constructed using BSA by the Bradford method. Then, the supernatant was diluted with a loading buffer and heated at 99° C. for 5 minutes. Resultant cells were used in a subsequent western blot analysis. Protein markers contained in lysates of the SH-SY5Y cells and brain tissue of the mice (SNpc and ST) were measured by western blot analysis. Briefly, after determining a concentration, a protein sample (20 μg) was separated by 8%, 10%, or 15% sodium dodecyl sulfate-polyacrylamide gel electrophoresis (SDS-PAGE). Then, proteins separated on the gel were transferred to a polyvinylidene fluoride (PVDF) membrane for 45 minutes using a Trans-Blot Turbo Transfer System (Bio-Rad, USA). […] The membrane was further incubated with monoclonal primary antibodies derived from rabbits (anti-GAPDH, anti-AMPK, anti-p-AMPK, anti-ULK, anti-p-ULK555, anti-Erk, anti-p-Erk, anti-mTOR, anti-p-mTOR, anti-LC3B, anti-TH, and anti-α-synuclein antibodies). The primary antibodies were diluted in a blocking buffer at a ratio of 1:1000 and incubated overnight at 4° C. On the second day, the membrane was washed with TBST three times (10 minutes each) and incubated at room temperature in a horseradish peroxidase-conjugated goat anti-rabbit IgG secondary antibody (diluted in a blocking buffer at a ratio of 1:2000). After incubating in the secondary antibody for 1 hour, the membrane was washed for 30 minutes. The protein blots on the membrane were developed using an ECL detection kit and visualized using an LAS-4000 mini system (Fujifilm, Japan). The intensity of the protein blots was quantified using Multi Gauge software (Fujifilm, Japan).

[3] = system: LC3, p62, TH and α-synuclein in SH-SY5Y cells; assay: Western blot of LC3, p62, TH and α-synuclein in MPP^+-treated SH-SY5Y cells (in vitro PD model)
Procedure: as §1

SH-SY5Y cells = assay: MTT assay to measure cell viability
Procedure: Cell viability was detected using an MTT assay kit (Z-Cytox). Briefly, the SH-SY5Y cells were seeded on a 96-well plate at a density of 2×10^4 cells/well with 100 μL of a culture medium. After 24 hours, the SH-SY5Y cells were treated with AKNS-2 and/or MPP^+ having desired concentrations to identify cytotoxicity of AKNS-2 and MPP^+. After 24 hours, 10 μL of the MTT reagent was added to each well of the 96-well plate including the cells. Absorbance was measured at 450 nm using a microplate spectrophotometer (BioTek, Vt., USA). […] The next day, absorbance was measured at 1 hour after adding the MTT reagent thereto.

[4] = 3-MA 5 mM 30 minutes before AKNS-2 10 μM
[5] = 10 μM U0126 30 minutes before AKNS-2 (5 μM and 10 μM)

Question: Which results are given for `CO/C1=C\C(C)=C\[C@@H](C)[C@@H](O)[C@@H](C)C/C(C)=C/C=C/[C@H](OC)[C@@H]([C@@H](C)[C@@H](O)[C@H](C)[C@@]2(O)C[C@@H](O)[C@H](C)[C@@H](C(C)C)O2)OC1=O` [Baf, bafilomycin A1]?
Answer: AKNS-2-enhanced accumulation of LC3-II puncta with bafilomycin A1 [1]: increased green fluorescence and decreased red fluorescence; AKNS-2-enhanced accumulation of LC3-II puncta with bafilomycin A1 ([1]; listed as bafilomycin A1): AKNS-2-induced autophagy is inhibited

Question: With `Cn1cnc(N)c2ncnc1-2` [Compound 3-MA, 3-methyladenine, reference compound] as the compound, how does the “AKNS-2-decreased p62 expression in presence of 3-MA” value [2, 4] read?
Answer: increases p62 expression; also recorded: remarkably blocked the inhibitory effects of AKNS-2 on the expression level of p62

Question: What about the “AKNS-2-up-regulated LC3-II expression in presence of 3-MA” value [2, 4] of the same compound?
Answer: decreases LC3-II expression; also recorded: the increased expression was significantly decreased

Question: And the “AKNS-2 effect on TH expression in presence of 3-MA” value ([3]; 3-MA + AKNS-2 + MPP^+)?
Answer: advantageous effects of AKNS-2 were canceled out

Question: And the “expression of LC3-II with 3-MA” value ([3]; 3-MA vs group co-administered with AKNS-2 and MPP^+)?
Answer: significantly inhibited the expression of LC3-II

Question: What does the source list for `N#CC(=C(/N)Sc1ccccc1N)/C(C#N)=C(\N)Sc1ccccc1N` [Compound U0126, reference compound]?
Answer: AKNS-2-induced LC3-II expression in presence of U0126 [2, 5]: a significant decrease was observed in the expression of LC3-II; also recorded: blocked the effects of AKNS-2 (5 μM and 10 μM) on increasing the expression of LC3-II; AKNS-2-inhibited p-mTOR expression in presence of U0126 [2, 5]: considerably restored; AKNS-2-increased p-ULK expression in presence of U0126 ([2]; 10 μM U0126 + AKNS-2 10 μM): canceled out the effects of AKNS-2 (10 μM) on an increase in expression of p-ULK; protective effect of AKNS-2 on cell viability in presence of U0126 (SH-SY5Y cells; 10 μM U0126 + AKNS-2 (5 μM and 10 μM) + 2 mM MPP^+): cancels out protective effects of AKNS-2 on cell viability; also recorded: such enhancement was canceled out; AKNS-2 effect on α-synuclein in presence of U0126 ([3]; 10 μM U0126 + AKNS-2 + 2 mM MPP^+): the protective effects were blocked; AKNS-2 effect on TH expression in presence of U0126 ([3]; 10 μM U0126 before AKNS-2 and 2 mM MPP^+): the effects of AKNS-2 on increasing the expression of TH were inhibited

Question: How did the “cell viability (MTT)” value (SH-SY5Y cells; MPP^+ alone, 2 mM) turn out when `C[n+]1ccc(-c2ccccc2)cc1.[I-]` [MPP^+, 1-methyl-4-phenylpyridinium (MPP^+) iodide, reference compound] was run?
Answer: significantly decreased cell viability
